Ten molecules from patent US4661596A, “Quinolinyl (or pyridinyl) methoxy substituted naphthalene compounds as antiallergic agents” (American Home Products Corporation, priority 1985, dated 1987) can be followed below.

Assay [1] relates to synthesis of 5-HETE by rat glycogen-elicited polymorphonuclear leukocytes. Nature of the assay: inhibition of 5-HETE synthesis by rat glycogen-elicited polymorphonuclear leukocytes. Conditions: Leukocyte; 50 μM unless otherwise stated; rat PMN, A23187 (10 μM) and [14C] arachidonic acid, 10 minutes preincubation. In kind it is cell-based, rat (female Wistar). Here is the method: This is especially true with respect to 5,12-diHETE, which is also denoted as LTB4 [see Ford-Hitchinson, J. Roy. Soc. Med., 74, 831 (1981)]. The assay of this Example measures the ability of the compounds of the invention to inhibit the synthesis of 5-HETE by rat glycogen-elicited polymorphonuclear leukocytes.
The array is carried out as follows:
Peritoneal PMN are obtained from female Wistar rats (150-250 g) that received an i.p. injection of 6% glycogen (10 mL). After 24 hours, rats are killed by CO2 asphyxiation and peritoneal cells are harvested by peritoneal lavage using Ca^++ and Mg^++ free Hanks' balanced salt solution (HBSS). The peritoneal exudate is centrifuged at 400 g for 10 minutes. After centrifugation, the lavaged fluid is removed and the cell pellet is resuspended in HBSS containing Ca^++ and Mg^++ and 10 mM L-cysteine at a concentration of 2×10^7 cells/mL. To 1 mL portions of cell suspension, test drugs or vehicle are added and incubated at 37° C. for 10 minutes. Following this preincubation, the calcium ionophore (10 μM), A23187, is added together with 0.5 μCi [^14 C] arachidonic acid and further incubated for 10 minutes. The reaction is stopped by the addition of ice cold water (3 mL) and acidifying to pH 3.5. Lipoxygenase products are then extracted twice into diethyl ether. The pooled ether extracts are evaporated to dryness under nitrogen and the residue is redissolved in a small volume of methanol and spotted on aluminum backed pre-coated thin layer chromatographic plates. The samples are then co-chromatographed with authentic reference 5-HETE in the solvent system-hexane:ether:acetic acid (50:50:3). After chromatography, the areas associated with 5-HETE standard are identified by autoradiography, cut out and quantitated by liquid scintillation.
Results are expressed as % inhibition of [^14 C]5-HETE synthesis. [formula]
Testing compounds of the invention in this assay the following results are obtained, where the concentration of the compounds tested is 50 μM unless otherwise stated.

For assay [2], the system named is LTD4 induced bronchoconstriction. The assay is described as follows: in vivo inhibition of LTD4-induced bronchospasm in guinea pigs. Also on record: species or system guinea pig (male Hartley). Conditions: 50 mg/kg intraduodenal; 10 minutes before induction of bronchospasm by LTD4; average of 6 experiments.

In general, inhibition refers to the relative decrease from the control value, in per cent. A low value points to little suppression.

In turn, `COc1ccc2ccc(OCc3ccc4ccccc4n3)cc2c1` [Example 3, 2-[[(7-methoxy-2-naphthalenyl)oxy]methyl]quinoline] gave an inhibition at 50 µM in assay [1] above 50%. Turning to `OC1CCCc2ccc(OCc3ccc4ccccc4n3)cc21` (stereo not shown) [Example 1, 1,2,3,4-Tetrahydro-7-(2-quinolinylmethoxy)-1-naphthalenol], in assay [2], the “% Inhibition (Statistical Average) Overflow Volume at 5 min.” value (from here on “% Inhibition”) stood at 56.1%. The molecule also showed an inhibition at 50 µM in assay [1] above 50%. In assay [1], `C=C1CCCc2ccc(OCc3ccc4ccccc4n3)cc21` [Example 9, 2-[[(5,6,7,8-tetrahydro-8-methylene-2-naphthalenyl)oxy]methyl]quinoline] gave an inhibition at 50 µM above 50%.

Regarding `O=S(=O)(Nc1ccc2ccc(OCc3ccc4ccccc4n3)cc2c1)C(F)(F)F` [Example 10, N-[7-(2-quinolinylmethoxy)-2-naphthalenyl]trifluoromethane sulfonamide], the “% Inhibition” value in assay [2] was 99.0%. `Oc1ccc2ccc(OCc3nc4ccccc4s3)cc2c1` [Example 4, 7-(2-benzothiazolylmethoxy)-2-naphthalenol]: the inhibition at 50 µM in assay [1] was above 50%.

Molecule `Oc1ccc2ccc(OCc3ccc4ccccc4n3)cc2c1` [Example 2, 7-(2-quinolinylmethoxy)-2-naphthalenol] had an inhibition at 50 µM in assay [1] above 50%. For `Nc1ccc2ccc(OCc3ccc4ccccc4n3)cc2c1` [Example 7, 7-(2-quinolinylmethoxy)-2-naphthalenamine], the “% Inhibition” value in assay [2] is 88.7%. In assay [1], this molecule showed an inhibition at 50 µM above 50%. Regarding `CCS(=O)(=O)Nc1ccc2ccc(OCc3ccc4ccccc4n3)cc2c1` [Example 8, N-[7-(2-quinolinylmethoxy)-2-naphthalenyl]ethane sulfonamide], the “% Inhibition” value in assay [2] came out at 90.6%. Further, the inhibition at 50 µM in assay [1] was above 50%. In turn, `Nc1cccc2ccc(OCc3ccc4ccccc4n3)cc12` [Example 6, 7-(2-quinolinylmethoxy)-1-naphthalenamine] gave an inhibition at 50 µM in assay [1] above 50%. With `Oc1ccc2ccc(OCc3ccccn3)cc2c1` [Example 5, 7-(2-pyridinylmethoxy)-2-naphthalenol], the inhibition at 50 µM in assay [1] is above 50%.
